Laboratory results published in PMC9143943, “Novel Tyrosine Kinase Inhibitors to Target Chronic Myeloid Leukemia” (Molecules, 2022).
Entries after “also recorded” stand apart in the source; their conditions may differ. Where two headings read alike, the source gives them in different places.

Key:
[1] = biological target: BCR-ABL kinase (Homo sapiens, UniProt P00519); experiment: FRET-based Z'-Lyte kinase assay
Protocol: Novel compounds were tested to investigate their ability to inhibit both BCR-ABL TK and HO-1.

[2] = biological target: T1, HO-1 (Rattus norvegicus, UniProt P06762); experiment: HO-1 enzymatic activity in microsomal fraction of rat spleen (bilirubin formation); assay type: biochemical
T1 construct: This microsomal preparation represents the most native (i.e., closest to in vivo) form of HO-1; from tissue; host or cells: rat spleen microsomes (male Sprague-Dawley rats)
T1 sequence (P06762 1-289): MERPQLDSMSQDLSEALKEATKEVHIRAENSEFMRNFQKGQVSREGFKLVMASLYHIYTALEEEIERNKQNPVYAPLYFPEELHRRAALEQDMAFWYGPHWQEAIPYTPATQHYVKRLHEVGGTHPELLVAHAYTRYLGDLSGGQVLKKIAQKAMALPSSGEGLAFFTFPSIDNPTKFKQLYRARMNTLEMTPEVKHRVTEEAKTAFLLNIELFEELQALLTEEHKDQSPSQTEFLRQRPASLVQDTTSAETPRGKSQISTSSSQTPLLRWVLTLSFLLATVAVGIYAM
Protocol: HO-1 activity was measured in microsomal fractions of rat spleen obtained as described in the experimental section. The activity was determined by measuring the bilirubin formation using the difference in absorbance at 464–530 nm. HO-1 inhibitors LS/0 and LS1/71 were used as reference compounds. […] Nevertheless, some observed differences in the results among the tested compounds allow us to discuss SAR as follows. HO-1 inhibitory activity mainly depends on the position of the oxybutylimidazole moiety and only to a lesser extent on the R substituent on the benzamide ring.
Since HO-1 protein is abundant in the rat spleen as well documented, rat spleen microsomal fraction prepared by differential centrifugation was used as source of the HO-1 protein. This microsomal preparation represents the most native (i.e., closest to in vivo) form of HO-1. Spleen microsomal fractions were obtained according to Ryter et al.. The experiments reported in the present paper complied with current Italian law and met the guidelines of the Institutional Animal Care and Use Committee of Ministry of Health (Directorate General for Animal Health and Veterinary Medicines, Italy) “Dosing of enzymatic activities in rat microsomes” (2018–2022), project code 02769.N.VLY. Male Sprague–Dawley albino rats (150 g body weight and age 45 d) used in our experimental conditions to obtain spleen microsomal fraction had free access to water and were kept at room temperature with a natural photo-period (12 h light–12 h dark cycle). To obtain a homogenate (15%, w/v) of spleens, each rat was sacrificed, and its spleen was excised and weighed. Spleens pooled from five rats were homogenized in 50 mM Tris buffer, pH 7.4, containing 0.25 M sucrose, using a Potter–Elvehjem homogenizing system with a Teflon pestle. The microsomal fraction of rat spleen homogenate was obtained by differential centrifugation: first centrifugation at 10,000× g for 20 min at 4 °C and a second centrifugation of the supernatant at 100,000× g for 60 min at 4 °C. The 100,000× g pellet (microsomes) was resuspended in 100 mM potassium phosphate buffer, pH 7.8, containing 2 mM MgCl2. The rat spleen fraction was divided into aliquots and stored at −80 °C for up to 2 months, and then its protein concentration was measured.
Biliverdin reductase was obtained by using rat liver cytosol. Three volumes of a solution 1.15% KCl w/v and Tris buffer 20 mM, pH 7.8, were used to homogenize on ice liver tissue. The 10,000× g supernatant was obtained by differential centrifugation: first centrifugation at 10,000× g for 20 min at 4 °C and a second centrifugation at […] at 4 °C to sediment the microsomes. The 10,000× g supernatant was stored in small amounts at −80 °C, and then its protein concentration was measured.
The HO-1 activity was determined by measuring the bilirubin formation using the difference in absorbance at 464–530 nm, as described by Ryter et al.. A final volume of 500 μL of incubation mixtures contained 20 mM Tris–HCl, pH 7.4, (1 mg/mL) microsomal extract, 0.5–2 mg/mL biliverdin reductase, 1 mM NADPH, 2 mM glucose 6-phosphate (G6P), 1 U G6P dehydrogenase, 25 μM hemin, and 10 μL of DMSO (or the same volume of DMSO solution of test compounds to a final concentration of 100, 10, and 1 μM). Enzymatic reactions were carried out in the dark for 60 min at 37 °C in a circulating water bath. The reactions were stopped by the addition of 500 μL of chloroform. After recovering the chloroform phase, the amount of bilirubin formed was measured with a double-beam spectrophotometer as OD464–530 nm (extinction coefficient, 40 mM/cm^−1 for bilirubin). The enzymatic activity was defined as Units (one Unit is the amount of enzyme catalyzing the formation of 1 nmol of bilirubin/mg protein/h).

[3] = system: K562-S cells; experiment: In vitro cytotoxicity, NIL-sensitive K562 cells (trypan blue / XTT); assay type: cell-based; conditions: 0.5 and 5 μM, 48 h
Protocol: K562 cells (CCL-243 ATCC) were cultured in RPMI 1640 (L0500, Biowest, Riverside, MO, USA) supplemented with 10% Fetal Bovine Serum (FBS) and 1% penicillin–streptomycin and incubated at 37 °C in 5% CO2. K562 cells were seeded at a concentration of 1 × 10^5 cells/mL of culture medium. […] Briefly, cells were harvested by centrifugation and resuspended in 5 mL of fresh medium; then an aliquot of 10 μL was taken and mixed with Trypan Blue (93595, Sigma-Aldrich, Milan, Italy) stain (1:1). The mixture was applied on a counting chamber, and cells were counted on a binocular microscope. […] Once resistance was established (after approximately 9 months), K562-R and K562-S were treated with compounds at different concentrations.
Treatments were maintained for 48 h, and then cell viability was assessed: (a) with 0.2% (final concentration) trypan blue dye exclusion analysis which is used to determine the number of viable cells present in a cell suspension and (b) with XTT assay.
• (a) Briefly, the cell number was determined by counting the viable cells in a Burker counting chamber divided into 16 fields of 1 mm^2. […]

[4] = experimental HO-1 IC50 repeated in Table 3, read-out: IC50
[5] = rat spleen microsomal fraction, read-out: HO-1 IC50 (μM) ± SD

BCR-ABL kinase, sequence (P00519 whole entry): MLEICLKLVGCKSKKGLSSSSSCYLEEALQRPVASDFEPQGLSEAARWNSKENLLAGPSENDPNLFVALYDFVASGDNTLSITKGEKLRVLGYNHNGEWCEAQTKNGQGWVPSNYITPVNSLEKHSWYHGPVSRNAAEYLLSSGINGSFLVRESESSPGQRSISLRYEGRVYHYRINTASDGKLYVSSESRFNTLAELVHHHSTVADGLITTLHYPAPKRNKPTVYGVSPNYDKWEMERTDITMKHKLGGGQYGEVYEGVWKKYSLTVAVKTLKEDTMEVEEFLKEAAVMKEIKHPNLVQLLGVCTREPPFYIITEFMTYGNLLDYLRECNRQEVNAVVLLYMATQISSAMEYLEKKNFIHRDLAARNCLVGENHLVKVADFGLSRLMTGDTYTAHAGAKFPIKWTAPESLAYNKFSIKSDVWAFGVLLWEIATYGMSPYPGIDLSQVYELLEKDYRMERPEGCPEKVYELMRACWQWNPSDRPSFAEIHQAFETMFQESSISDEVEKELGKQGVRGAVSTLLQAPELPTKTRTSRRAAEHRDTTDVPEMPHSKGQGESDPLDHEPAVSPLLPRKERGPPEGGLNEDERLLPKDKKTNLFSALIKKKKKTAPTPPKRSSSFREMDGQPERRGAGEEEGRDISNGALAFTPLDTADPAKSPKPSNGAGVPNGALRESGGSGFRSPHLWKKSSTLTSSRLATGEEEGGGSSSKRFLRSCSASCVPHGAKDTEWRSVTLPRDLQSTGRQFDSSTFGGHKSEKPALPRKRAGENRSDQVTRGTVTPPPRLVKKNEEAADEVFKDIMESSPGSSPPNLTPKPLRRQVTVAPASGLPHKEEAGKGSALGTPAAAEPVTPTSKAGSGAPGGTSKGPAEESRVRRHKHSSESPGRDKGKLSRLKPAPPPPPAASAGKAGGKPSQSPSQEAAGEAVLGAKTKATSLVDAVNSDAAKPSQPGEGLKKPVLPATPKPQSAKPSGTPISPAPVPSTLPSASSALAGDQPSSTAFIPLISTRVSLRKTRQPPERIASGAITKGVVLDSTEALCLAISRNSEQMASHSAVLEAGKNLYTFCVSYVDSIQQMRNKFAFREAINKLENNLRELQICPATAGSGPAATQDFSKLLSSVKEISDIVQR

For `Cc1ccc(C(=O)Nc2cccc(OCCCCn3ccnc3)c2)cc1Nc1nccc(-c2cccnc2)n1` [Compound 1b, N-(3-(4-(1H-imidazol-1-yl)butoxy)phenyl)-4-methyl-3-((4-(pyridin-3-yl)pyrimidin-2-yl)amino)benzamide], the IC50 [1] was 4.19 ± 0.16 µM, the melting point was 118 to 120 °C and the IC50 [2, 4] was 64.6 µM. It also gave an IC50 [2, 5] of 64.6 ± 0.69 µM.

In the case of `Cc1ccc(C(=O)Nc2ccc(Br)c(OCCCCn3ccnc3)c2)cc1Nc1nccc(-c2cccnc2)n1` [Compound 1f, N-(3-(4-(1H-imidazol-1-yl)butoxy)-4-bromophenyl)-4-methyl-3-((4-(pyridin-3-yl)pyrimidin-2-yl)amino)benzamide], the IC50 [1] is reported as 5.21 ± 0.224 µM, the IC50 [2, 4] is reported as 100 µM and the IC50 [2, 5] is reported as 100 ± 3.29 µM.

Compound `Cc1ccc(C(=O)Nc2ccc(OCCCCn3ccnc3)c(Br)c2)cc1Nc1nccc(-c2cccnc2)n1` [Compound 1e, N-(4-(4-(1H-imidazol-1-yl)butoxy)-3-bromophenyl)-4-methyl-3-((4-(pyridin-3-yl)pyrimidin-2-yl)amino)benzamide] has an IC50 [1] of 0.037 ± 0.0012 µM, an IC50 [2, 4] of 55.1 µM and an IC50 [2, 5] of 55.1 ± 0.71 µM.

For `Cc1ccc(C(=O)Nc2ccc(OCCCCn3ccnc3)cc2)cc1Nc1nccc(-c2cccnc2)n1` [Compound 1a, N-(4-(4-(1H-imidazol-1-yl)butoxy)phenyl)-4-methyl-3-((4-(pyridin-3-yl)pyrimidin-2-yl)amino)benzamide], the IC50 [1] was 0.109 ± 0.0016 µM, the melting point was 140 to 142 °C and the IC50 [2, 4] was 44.8 µM. The IC50 [2, 5] was 44.8 ± 2.58 µM.

In the case of `Cc1ccc(C(=O)Nc2cc(Br)cc(OCCCCn3ccnc3)c2)cc1Nc1nccc(-c2cccnc2)n1` [Compound 1g, N-(3-(4-(1H-imidazol-1-yl)butoxy)-5-bromophenyl)-4-methyl-3-((4-(pyridin-3-yl)pyrimidin-2-yl)amino)benzamide], the IC50 [1] is reported as 0.077 ± 0.0036 µM, the melting point is reported as 162 to 164.4 °C and the K562-S cell viability [3] is reported as “significant reduction; also recorded: cytotoxic properties similar to NIL and IM”. It also gave an IC50 [2, 4] of 51 µM and an IC50 [2, 5] of 51 ± 0.99 µM.

In the case of `Cc1ccc(C(=O)Nc2ccccc2OCCCCn2ccnc2)cc1Nc1nccc(-c2cccnc2)n1` [Compound 1c, N-(2-(4-(1H-imidazol-1-yl)butoxy)phenyl)-4-methyl-3-((4-(pyridin-3-yl)pyrimidin-2-yl)amino)benzamide], the IC50 [1] is reported as 14.6 ± 0.283 µM, the IC50 [2, 4] is reported as 149 µM and the IC50 [2, 5] is reported as 149 ± 8.1 µM.

In the case of `Cc1ccc(C(=O)Nc2ccc(Br)cc2OCCCCn2ccnc2)cc1Nc1nccc(-c2cccnc2)n1` [Compound 1i, N-(2-(4-(1H-imidazol-1-yl)butoxy)-4-bromophenyl)-4-methyl-3-((4-(pyridin-3-yl)pyrimidin-2-yl)amino)benzamide], the IC50 [1] is reported as 13.7 ± 0.139 µM, the melting point is reported as 94 to 96 °C and the IC50 [2, 4] is reported as 83.4 µM. The IC50 [2, 5] was 83.4 ± 2.3 µM.

For `Cc1ccc(OCCCCn2ccnc2)c(NC(=O)c2ccc(C)c(Nc3nccc(-c4cccnc4)n3)c2)c1` [Compound 1j, N-(2-(4-(1H-imidazol-1-yl)butoxy)-5-methylphenyl)-4-methyl-3-((4-(pyridin-3-yl)pyrimidin-2-yl)amino)benzamide], the IC50 [1] was 5.45 ± 0.223 µM, the IC50 [2, 4] was 3060 µM and the IC50 ([2]; rat spleen microsomal fraction, read-out: HO-1 IC50) was ~3000 µM. For the same compound, the IC50 [2, 5] was 3060 ± 201 µM.

In the case of `Cc1ccc(C(=O)Nc2cc(OCCCCn3ccnc3)cc(C(F)(F)F)c2)cc1Nc1nccc(-c2cccnc2)n1` [Compound 1h, N-(3-(4-(1H-imidazol-1-yl)butoxy)-5-(trifluoromethyl)phenyl)-4-methyl-3-((4-(pyridin-3-yl)pyrimidin-2-yl)amino)benzamide], the IC50 [1] is reported as 0.77 ± 0.042 µM, the melting point is reported as 180.3 to 182.5 °C and the K562-S cell viability [3] is reported as “significant reduction; also recorded: cytotoxic properties similar to NIL and IM”. For the same compound, the IC50 [2, 4] was 65.4 µM and the IC50 [2, 5] was 65.4 ± 1.39 µM.

Work on `Cc1ccc(C(=O)Nc2cc(OCCCCn3ccnc3)ccc2Br)cc1Nc1nccc(-c2cccnc2)n1` [Compound 1d, N-(5-(4-(1H-imidazol-1-yl)butoxy)-2-bromophenyl)-4-methyl-3-((4-(pyridin-3-yl)pyrimidin-2-yl)amino)benzamide] yielded an IC50 [1] of 16.2 ± 0.208 µM, a melting point of 69.8 to 72 °C and an IC50 [2, 4] of 116 µM. It also gave an IC50 [2, 5] of 116 ± 5.24 µM.
